# Reference: patent US20090203577A1 (EXELIXIS, INC., priority 2005, published 2009)
# Molecular target: T1, human farnesoid X receptor (Homo sapiens, UniProt Q96RI1)
# T1 construct: CMX-farnesoid X receptor (full length human farnesoid X receptor); expressed in transfected cells; host or cells: CV-1 African Green Monkey Kidney cells
# T1 sequence (Q96RI1 1-472 isoform Q96RI1-2): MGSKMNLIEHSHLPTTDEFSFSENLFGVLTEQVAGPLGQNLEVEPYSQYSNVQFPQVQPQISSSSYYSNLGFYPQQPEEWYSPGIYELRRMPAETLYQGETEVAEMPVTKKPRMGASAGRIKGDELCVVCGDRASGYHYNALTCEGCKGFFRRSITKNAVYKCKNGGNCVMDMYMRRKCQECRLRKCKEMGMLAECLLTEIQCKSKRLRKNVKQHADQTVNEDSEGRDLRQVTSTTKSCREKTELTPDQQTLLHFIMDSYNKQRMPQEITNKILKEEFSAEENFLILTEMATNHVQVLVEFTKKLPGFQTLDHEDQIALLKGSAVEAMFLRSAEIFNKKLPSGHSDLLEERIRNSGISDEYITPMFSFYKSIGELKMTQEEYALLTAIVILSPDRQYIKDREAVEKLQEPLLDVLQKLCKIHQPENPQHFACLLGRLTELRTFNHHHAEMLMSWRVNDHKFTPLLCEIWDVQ
# T1 sequence (P19793 1-462 partner): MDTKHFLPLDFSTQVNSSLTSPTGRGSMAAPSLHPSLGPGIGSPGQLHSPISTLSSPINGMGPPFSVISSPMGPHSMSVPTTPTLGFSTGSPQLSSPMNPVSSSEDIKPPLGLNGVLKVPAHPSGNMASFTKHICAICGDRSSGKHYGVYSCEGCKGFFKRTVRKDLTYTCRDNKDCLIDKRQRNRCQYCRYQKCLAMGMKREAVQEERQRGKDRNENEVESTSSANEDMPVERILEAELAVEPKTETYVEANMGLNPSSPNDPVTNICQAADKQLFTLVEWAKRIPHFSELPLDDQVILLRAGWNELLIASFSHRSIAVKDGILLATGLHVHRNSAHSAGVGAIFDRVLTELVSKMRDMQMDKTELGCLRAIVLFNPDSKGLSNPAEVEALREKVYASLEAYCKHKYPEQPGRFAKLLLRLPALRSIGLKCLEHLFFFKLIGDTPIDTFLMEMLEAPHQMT
# Assay: FXR in vitro assays (farnesoid X receptor/ECREx7 co-transfection assay, TR-FRET assay), Table I
# Assay type: cell-based
# Conditions: for EC50: agonist activity, one or more of the in vitro assays, read-out: EC50; for Emax: read-out: % Efficacy
# Procedure: The basic co-transfection protocol for measuring the farnesoid X receptor activity is as follows. CV-1 African Green Monkey Kidney cells were plated 24 hours before transfection to achieve approximately 70-80 percent confluency. […] The assay was allowed to continue for an additional 18-20 hours, after which the cells were lysed, with lysis buffer (1% triton X 100, 10% glycerol, 5 mM Dithiothreitol, 1 mM EGTA, 25 mM Tricine, pH 7.8) and the luciferase activity measured in the presence of Luciferase assay buffer (0.73 mM ATP, 22.3 mm Tricine, 0.11 mM EGTA, 0.55 mM Luciferin, 0.15 mM Coenzyme A, 0.5 mM HEPES, 10 mM Magnesium sulphatc) on a standard luminometer plate reader (PE Biosystems, NorthStar Reader), using recommended operating instructions and conditions.
# The dose response curves are generated from an 8 point curve with concentrations differing by ½ LOG units. Each point represents the average of 4 wells of data from a 384 well plate. A curve for the data is generated by using the equation:
# Y=Bottom+(Top−Bottom)/(1+10̂((Log EC50−X)*HillSlope))
# The EC50/IC50 is therefore defined as the concentration at which an agonist or antagonist elicits a response that is half way between the Top (maximum) and Bottom (baseline) values. The EC50/IC50 values represented are the averages of at least 3 independent experiments.
Compound,EC50 [nM],Emax [%]
"CC(C)OC(=O)C1=CN(C(=O)c2cccc(CN3CCN(C(=O)OC(C)(C)C)CC3)c2)CC(C)(C)c2c1[nH]c1ccccc21 [Example 166, 1-methyethyl 3-({3-[(4-{[(1,1-dimethylethyl)oxy]carbonyl}piperazin-1-yl)methyl]phenyl}carbonyl)-1,1-dimethyl-1,2,3,6-tetrahydroazepino[4,5-b]indole-5-carboxylate]",100 to 1000,> 100
"CC(C)OC(=O)C1=CN(C(=O)c2ccc(Cl)c(Cl)c2)CC(C)(C)c2c1[nH]c1ccccc21 [Example 148, 1-methylethyl 3-[(3,4-dichlorophenyl)carbonyl]-1,1-dimethyl-1,2,3,6-tetrahydroazepino[4,5-b]indole-5-carboxylate]",10 to 100,> 100
"CCN(CC)Cc1cccc(C(=O)N2C=C(C(=O)OC(C)C)c3[nH]c4ccccc4c3C(C)(C)C2)c1 [Example 114, 1-methylethyl 3-({3-[(diethylamino)methyl]phenyl}carbonyl)-1,1-dimethyl-1,2,3,6-tetrahydroazepino[4,5-b]indole-5-carboxylate]",100 to 1000,> 100
"CC(C)OC(=O)C1=CN(C(=O)c2cccc(CN3CCN(S(C)(=O)=O)CC3)c2)CC(C)(C)c2c1[nH]c1ccccc21 [Example 151, 1-methylethyl 1,1-dimethyl-3-[(3-{[4-(methylsulfonyl)piperazin-1-yl]methyl}phenyl)carbonyl]-1,2,3,6-tetrahydroazepino[4,5-b]indole-5-carboxylate]",100 to 1000,> 100
"CCN(CC)CCN(CC)C(=O)N1C=C(C(=O)OC(C)C)c2[nH]c3ccccc3c2C(C)(C)C1 [Example 27, 1-methylethyl 3-({[2-(diethylamino)ethyl](ethyl)amino}carbonyl)-1,1-dimethyl-1,2,3,6-tetrahydro azepino [4,5-b]indole-5-carboxylate]",1000 to 10000,
"CC1(C)CN(C(=O)c2ccc(F)c(F)c2)C=C(C(=O)OCCOCc2ccccc2)c2[nH]c3ccccc3c21 [Example 195, 2-[(phenylmethyl)oxy]ethyl 3-[(3,4-difluorophenyl)carbonyl]-1,1-dimethyl-1,2,3,6-tetrahydroazepino[4,5-b]indole-5-carboxylate]",100 to 1000,> 100
"Cc1cc(C(=O)N2C=C(C(=O)OC(C)C)c3[nH]c4ccccc4c3C(C)(C)C2)ccc1F [Example 144, 1-methylethyl 3-[(4-fluoro-3-methylphenyl)carbonyl]-1,1-dimethyl-1,2,3,6-tetrahydroazepino[4,5-b]indole-5-carboxylate]",1 to 10,> 100
"CC(C)OC(=O)C1=CN(C(=O)c2cccc(OCCN3CCOCC3)c2)CC(C)(C)c2c1[nH]c1ccccc21 [Example 160, 1-methylethyl 1,1-dimethyl-3-({3-[(2-morpholin-4-ylethyl)oxy]phenyl}carbonyl)-1,2,3,6-tetrahydroazepino[4,5-b]indole-5-carboxylate]",,> 100
"CC(C)OC(=O)C1=CN(C(=O)c2cc(F)c(F)c(OCCN3CCOCC3)c2)CC(C)(C)c2c1[nH]c1ccccc21 [Example 179, 1-methylethyl 3-({3,4-difluoro-5-[(2-morpholin-4-ylethyl)oxy]phenyl}carbonyl)-1,1-dimethyl-1,2,3,6-tetrahydroazepino[4,5-b]indole-5-carboxylate]",10 to 100,> 100
"CC(C)OC(=O)C1=CN(C(=O)c2cc(F)c(F)cc2F)CC(C)(C)c2c1[nH]c1ccccc21 [Example 79, 1-methylethyl 1,1-dimethyl-3-[(2,4,5-trifluorophenyl)carbonyl]-1,2,3,6-tetrahydroazepino[4,5-b]indole-5-carboxylate]",1 to 10,> 100
"CC(C)OC(=O)C1=CN(C(=O)c2cccc(C(F)(F)F)c2)CC(C)(C)c2c1[nH]c1ccccc21 [Example 128, 1-methylethyl 1,1-dimethyl-3-{[3-(trifluoromethyl)phenyl]car-bonyl}-1,2,3,6-tetrahydroazepino[4,5-b]indole-carboxylate]",10 to 100,> 100
"CC(C)OC(=O)C1=CN(C(=O)c2cccc(F)c2F)CC(C)(C)c2c1[nH]c1ccccc21 [Example 74, 1-methylethyl 3-[(2,3-difluorophenyl)carbonyl]-1,1-dimethyl-1,2,3,6-tetrahydroazepino[4,5-b]indole-5-carboxylate]",1 to 10,> 100
"CC(C)OC(=O)C1=CN(C(=O)c2cccc(CN3CCN(C(=O)C4CC4)CC3)c2)CC(C)(C)c2c1[nH]c1ccccc21 [Example 173, 1-methylethyl 3-[(3-{[4-(cyclopropylcarbonyl)piper-azin-1-yl]methyl}phenyl)carbonyl]-1,1-dimethyl-1,2,3,6-tetrahydroazepino[4,5-b]indole-5-carboxylate]",100 to 1000,> 100
"CC(C)OC(=O)C1=CN(C(=O)c2ccc(F)c(F)c2)CC(C)(C)c2c1[nH]c1cc(OCCN(C)C)ccc21 [Example 98, 1-methylethyl 3-[(3,4-difluorophenyl)carbonyl]-8-{[2-(dimethylamino)ethyl]oxy}-1,1-dimethyl-1,2,3,6-tetrahydroazepino[4,5-b]indole-5-carboxylate]",100 to 1000,< 40
"CC(C)OC(=O)C1=CN(C(=O)C2CCCCCC2)CC(C)(C)c2c1[nH]c1ccccc21 [Example 12, 1-Methylethyl 3-[(3,4-Difluorophenyl)Carbonyl]-8-[(f{[2-(Dimethylamino)Ethyl]amino}Carbonyl)Oxy]-1,1-Dimethyl-1,2,3,6-tetrahydroazepino[4,5-b]Indole-5-Carboxylate]",10 to 100,> 100
"CC(C)OC(=O)C1=CN(C(=O)c2ccccc2Cl)CC(C)(C)c2c1[nH]c1ccccc21 [Example 66, 1-methylethyl 3-[(2-chlorophenyl)carbonyl]-1,1-dimethyl-1,2,3,6-tetrahydroazepino[4,5-b]indole-5-carboxylate]",1 to 10,> 100
"CC(C)OC(=O)C1=CN(C(=O)c2cccc(CN3CCN(S(=O)(=O)c4ccc(F)cc4)CC3)c2)CC(C)(C)c2c1[nH]c1ccccc21 [Example 168, 1-methylethyl 3-{[3-({4-[(4-fluorophenyl)sulfonyl]piper-azin-1-yl}methyl)phenyl]carbonyl}-1,1-dimethyl-1,2,3,6-tetrahydroazepino[4,5-b]indole-5-carboxylate]",100 to 1000,> 100
"CC(C)OC(=O)C1=CN(C(=O)N2CCCN(Cc3ccccc3)CC2)CC(C)(C)c2c1[nH]c1ccccc21 [Example 59, 1-methylethyl 1,1-dimethyl-3-{[4-(phenylmethyl)-1,4-diazepan-1-yl]carbonyl}-1,2,3,6-tetrahydroazepino [4,5-b]indole-5-carboxylate]",10 to 100,> 100
"Cc1cc(C(=O)N2C=C(C(=O)OC(C)C)c3[nH]c4ccccc4c3C(C)(C)C2)no1 [Example 109, 1-methylethyl 1,1-dimethyl-3-[(5-methylisoxazol-3-yl)carbonyl]-1,2,3,6-tetrahydroazepino[4,5-b]indole-5-carboxylate]",100 to 1000,> 100
"CC(C)OC(=O)C1=CN(C(=O)c2cccc3c2OC(F)(F)O3)CC(C)(C)c2c1[nH]c1ccccc21 [Example 91, 1-methylethyl 3-[(2,2-difluoro-1,3-benzodioxol-4-yl)carbonyl]-1,1-dimethyl-1,2,3,6-tetrahydroazepino[4,5-b]indole-5-carboxylate]",10 to 100,> 100
